Measured values from ChEMBL document CHEMBL1142291, “A novel bicyclic hexapeptide, RA-XVIII, from Rubia cordifolia: structure, semi-synthesis, and cytotoxicity” (Bioorg Med Chem Lett, 2008).
Values after ≈ are worked out from the molar mass of the structure shown.

Tested on: P388
Assay: Cytotoxicity against mouse P388 cells
Assay type: functional, cell-based

SMILES | IC50
COc1ccc(C[C@H]2C(=O)N[C@@H](C)C(=O)N(C)[C@H]3Cc4ccc(cc4)Oc4cc(c([N+](=O)[O-])cc4OC)C[C@@H](C(=O)N[C@H](C)C(=O)N[C@@H](C)C(=O)N2C)N(C)C3=O)cc1 | 0.056 µg/mL (≈ 0.0686 µM)
COc1ccc(C[C@H]2C(=O)N[C@@H](C)C(=O)N(C)[C@H]3Cc4ccc(cc4)Oc4cc(c(O)cc4OC)C[C@@H](C(=O)N[C@H](C)C(=O)N[C@@H](C)C(=O)N2C)N(C)C3=O)cc1 | 0.093 µg/mL (≈ 0.118 µM)
COc1ccc(C[C@H]2C(=O)N[C@@H](C)C(=O)N(C)[C@H]3Cc4ccc(cc4)Oc4cc(ccc4OC)C[C@@H](C(=O)N[C@H](C)C(=O)N[C@@H](C)C(=O)N2C)N(C)C3=O)cc1 | 0.003 µg/mL (≈ 0.00389 µM)
COc1ccc(C[C@H]2C(=O)N[C@@H](C)C(=O)N(C)[C@H]3Cc4ccc(cc4)Oc4cc(cc(O)c4OC)C[C@@H](C(=O)N[C@H](C)C(=O)N[C@@H](C)C(=O)N2C)N(C)C3=O)cc1 | 0.012 µg/mL (≈ 0.0153 µM)
COc1ccc(C[C@H]2C(=O)N[C@@H](C)C(=O)N(C)[C@H]3Cc4ccc(cc4)Oc4cc(cc(N)c4OC)C[C@@H](C(=O)N[C@H](C)C(=O)N[C@@H](C)C(=O)N2C)N(C)C3=O)cc1 | 0.0071 µg/mL (≈ 0.00903 µM)
COc1ccc(C[C@H]2C(=O)N[C@@H](C)C(=O)N(C)[C@H]3Cc4ccc(cc4)Oc4cc(ccc4O)C[C@@H](C(=O)N[C@H](C)C(=O)N[C@@H](C)C(=O)N2C)N(C)C3=O)cc1 [DEOXYBOUVARDIN] | 0.014 µg/mL (≈ 0.0185 µM)
COc1ccc(C[C@H]2C(=O)N[C@@H](C)C(=O)N(C)[C@H]3Cc4ccc(cc4)Oc4cc(c(N)cc4OC)C[C@@H](C(=O)N[C@H](C)C(=O)N[C@@H](C)C(=O)N2C)N(C)C3=O)cc1 | 0.7 µg/mL (≈ 0.891 µM)
COc1ccc(C[C@H]2C(=O)N[C@@H](C)C(=O)N(C)[C@H]3Cc4ccc(cc4)Oc4cc(cc([N+](=O)[O-])c4OC)C[C@@H](C(=O)N[C@H](C)C(=O)N[C@@H](C)C(=O)N2C)N(C)C3=O)cc1 | 0.01 µg/mL (≈ 0.0123 µM)
COc1ccc(C[C@H]2C(=O)N[C@@H](C)C(=O)N(C)[C@H]3Cc4ccc(cc4)Oc4cc(cc([N+](=O)[O-])c4O)C[C@@H](C(=O)N[C@H](C)C(=O)N[C@@H](C)C(=O)N2C)N(C)C3=O)cc1 | 0.014 µg/mL (≈ 0.0175 µM)
